Measurements taken from article PMC12775434, “Ultra-large virtual screening unveils potent agonists of the neuromodulatory orphan receptor GPR139” (Nature Communications, 2025).
Several values for one entry are separate records, joined by “and”; a condition that tells them apart may be missing. Equal entries are not always repeated.

Legend:
GPR139 (GoA activation) = target: T1, GPR139 (GoA activation) (Homo sapiens, UniProt Q6DWJ6); assay: BRET G protein activation (dissociation) assay, GoA, HEK293A; type: cell-based; conditions: for Emax: HEK293-A, normalized to JNJ-63533054 (JNJ(S)); for EC50: Supplementary Table 6; for G protein activation, GoA: individual replicates
T1 construct: expressed in transfected cells; host or cells: HEK293A (transient, Lipofectamine 2000)
T1 sequence (Q6DWJ6 1-353): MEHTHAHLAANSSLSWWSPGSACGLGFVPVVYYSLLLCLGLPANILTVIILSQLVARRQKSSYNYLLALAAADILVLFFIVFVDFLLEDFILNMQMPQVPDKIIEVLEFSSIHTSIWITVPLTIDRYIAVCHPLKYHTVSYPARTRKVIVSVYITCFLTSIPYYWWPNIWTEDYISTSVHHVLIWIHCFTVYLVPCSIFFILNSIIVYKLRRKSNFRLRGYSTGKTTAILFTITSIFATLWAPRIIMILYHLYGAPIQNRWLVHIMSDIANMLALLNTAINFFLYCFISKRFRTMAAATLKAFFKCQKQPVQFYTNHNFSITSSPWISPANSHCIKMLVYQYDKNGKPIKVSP
Description: (§1) Primary screening and pharmacological characterization of compounds were performed using a CHO-K1 cell line that stably expresses human GPR139 (GPR139-CHOk1). The GPR139-CHOk1 cell line was kindly provided by H. Lundbeck A/S, Denmark[24]. GPR139-CHOk1 cells were grown in Ham’s F-12 Kaighn’s Modification Medium (ThermoFisher #21127030) supplemented with 10% dialyzed fetal bovine serum (US origin, ThermoFisher #26400044), 100 units/mL Penicillin-Streptomycin (ThermoFisher #15140122), and 1 mg/mL Geneticin (ThermoFisher #11811031). […] M1R-CHOk1 cells were purchased from The Missouri S&T cDNA Resource Center (#CEM100TN00). M1R-CHOk1 cells were grown in Ham’s F12 Medium (ThermoFisher #21765029) supplemented with 10% fetal bovine serum (Brazilian origin, ThermoFisher #10270106), 100 units/mL Penicillin-Streptomycin, and 0.25 mg/mL Geneticin. HEK293A cells transiently transfected with GPR139 were used for additional pharmacological assessment of signaling pathways activated by GPR139. HEK239A cells were generously provided by Dr. Asuka Inoue, Tohoku University, Japan. HEK293A cells were grown in Dulbecco’s Modified Eagle Medium (ThermoFisher #31966047) supplemented with 10% dialyzed fetal bovine serum and 100 units/mL Penicillin-Streptomycin. Cell lines were maintained at 37 °C in humidified incubator equilibrated with 5% CO2.
(§2) The G protein dissociation assay developed by the lab of Kirill A. Martemyanov was used to measure the coupling of multiple G proteins by GPR139[57]. The assay was performed as described previously with minor modifications. HEK293A cells were reverse transfected 20–24 h prior to assay. 50,000 cells were plated in each well of white opaque tissue culture treated 96-well plates (PerkinElmer #6005680) previously coated with poly-D-lysine. Transfection solutions were prepared as described, and 10 µL transfection solution was mixed with 100 µL cells in each well. The cells in each well were transfected with 18.9 ng GPR139, 6.3 ng Venus 1-155 Gγ2, 6.3 ng Venus 159-239 Gβ1, 6.3 ng masGRK3ct-NanoLuc and 12.6 ng Gαi2, 12.6 ng Gαi3, 12.6 ng GαoA, 12.6 ng Gαq or 25.2 ng Gα12 using 375 nL Lipofectamine 2000 Transfection Reagent. Transfections with Gαq and Gα12 contained 6.3 ng DNA of the active subunit S1 of pertussis toxin (PTX-S1). Each transfection was normalized to 150 ng total DNA with pcDNA3.1. The BRET biosensors were a kind gift from the Martemyanov lab. On the day of the experiment the cells were washed with HEPES buffer. Test compounds were diluted in HEPES buffer from DMSO stocks (final DMSO concentration of maximally 0.3%). NanoLuc Luciferase substrate NanoGlo—furimazine (Promega #N1120) was diluted 1000-fold (final) in HEPES buffer. NanoGlo and test compounds were added, and measurements were performed after 10 s for Gi3, 15 s for Gi2 and GoA, 20 s for Gq, and 90 s for G12—the timepoint where maximal signal occurred with each G protein, ensuring proper determination of the potency for the G protein coupling. Simultaneous dual emission was measured at 535 nm and 475 nm on LUMIstar Omega Microplate Reader (BMG Labtech) at room temperature. The BRET ratio of 535 nm/475 nm (Venus/NanoLuc), reflecting the dissociation of the G protein heterotrimer, was used to determine the G protein activation. The basal BRET ratio obtained with buffer condition was subtracted from the absolute BRET ratio at a given test compound concentration, and the responses were normalized to the one obtained with 10 µM JNJ-63533054 for the activation of Gi2.
(§3) Pharmacological data and statistical analyses were performed in GraphPad Prism v9–10 (Graphpad Software Inc., San Diego, CA), which are also specifically described in the figure and table legends. […]

GPR139 (Gi3 activation) = target: T2, GPR139 (Gi3 activation) (Homo sapiens, UniProt Q6DWJ6); assay: BRET G protein activation (dissociation) assay, Gi3, HEK293A; type: cell-based; conditions: for Emax: HEK293-A, normalized to JNJ-63533054 (JNJ(S)); for EC50: Supplementary Table 6, read-out: pEC50 Gi3 (converted); for G protein activation, Gi3: individual replicates
T2 construct: expressed in transfected cells; host or cells: HEK293A (transient, Lipofectamine 2000)
T2 sequence (Q6DWJ6 1-353): T1 sequence (Q6DWJ6 1-353)
Description: as §1, §2, §3

SMILES	Emax (GPR139 (GoA activation))	EC50 (GPR139 (GoA activation))	G protein activation, GoA (GPR139 (GoA activation); log [compound] M -4.5)	G protein activation, GoA (GPR139 (GoA activation); log [compound] M -5.0)	G protein activation, GoA (GPR139 (GoA activation); log [compound] M -5.5)	G protein activation, GoA (GPR139 (GoA activation); log [compound] M -6.0)	G protein activation, GoA (GPR139 (GoA activation); log [compound] M -6.5)	G protein activation, GoA (GPR139 (GoA activation); log [compound] M -7.0)	G protein activation, GoA (GPR139 (GoA activation); log [compound] M -7.5)	G protein activation, GoA (GPR139 (GoA activation); log [compound] M -8.0)	Emax (GPR139 (Gi3 activation))	EC50 (GPR139 (Gi3 activation))	G protein activation, Gi3 (GPR139 (Gi3 activation); log [compound] M -4.5)	G protein activation, Gi3 (GPR139 (Gi3 activation); log [compound] M -5.0)	G protein activation, Gi3 (GPR139 (Gi3 activation); log [compound] M -5.5)	G protein activation, Gi3 (GPR139 (Gi3 activation); log [compound] M -6.0)	G protein activation, Gi3 (GPR139 (Gi3 activation); log [compound] M -6.5)	G protein activation, Gi3 (GPR139 (Gi3 activation); log [compound] M -7.0)	G protein activation, Gi3 (GPR139 (Gi3 activation); log [compound] M -7.5)	G protein activation, Gi3 (GPR139 (Gi3 activation); log [compound] M -8.0)
Cc1cscc1-c1nc(CC(=O)N[C@@H](C)c2ccccc2)no1 [1.1(S)]	96 ± 3%	63.1 nM	105 % of JNJ-63533054 at Gi2 and 96 % of JNJ-63533054 at Gi2 and 101 % of JNJ-63533054 at Gi2	96 % of JNJ-63533054 at Gi2 and 86 % of JNJ-63533054 at Gi2 and 97 % of JNJ-63533054 at Gi2	94 % of JNJ-63533054 at Gi2 and 83 % of JNJ-63533054 at Gi2 and 96 % of JNJ-63533054 at Gi2	93 % of JNJ-63533054 at Gi2 and 78 % of JNJ-63533054 at Gi2 and 92 % of JNJ-63533054 at Gi2	83 % of JNJ-63533054 at Gi2 and 70 % of JNJ-63533054 at Gi2 and 76 % of JNJ-63533054 at Gi2	62 % of JNJ-63533054 at Gi2 and 52 % of JNJ-63533054 at Gi2 and 61 % of JNJ-63533054 at Gi2	34 % of JNJ-63533054 at Gi2 and 29 % of JNJ-63533054 at Gi2 and 31 % of JNJ-63533054 at Gi2	11 % of JNJ-63533054 at Gi2 and 8 % of JNJ-63533054 at Gi2 and 13 % of JNJ-63533054 at Gi2	45 ± 3%	50.1 nM	50 % of JNJ-63533054 at Gi2 and 43 % of JNJ-63533054 at Gi2 and 51 % of JNJ-63533054 at Gi2	46 % of JNJ-63533054 at Gi2 and 36 % of JNJ-63533054 at Gi2 and 43 % of JNJ-63533054 at Gi2	46 % of JNJ-63533054 at Gi2 and 40 % of JNJ-63533054 at Gi2 and 43 % of JNJ-63533054 at Gi2	44 % of JNJ-63533054 at Gi2 and 36 % of JNJ-63533054 at Gi2 and 42 % of JNJ-63533054 at Gi2	37 % of JNJ-63533054 at Gi2 (2×) and 36 % of JNJ-63533054 at Gi2	31 % of JNJ-63533054 at Gi2 and 26 % of JNJ-63533054 at Gi2 and 28 % of JNJ-63533054 at Gi2	18 % of JNJ-63533054 at Gi2 and 14 % of JNJ-63533054 at Gi2 and 21 % of JNJ-63533054 at Gi2	11 % of JNJ-63533054 at Gi2 and 5.42 % of JNJ-63533054 at Gi2 and 10 % of JNJ-63533054 at Gi2
C[C@@H](NC(=O)CNC(=O)c1cccc(Cl)c1)c1ccccc1 [JNJ(R), reference compound]	79 ± 1%	5010 nM	73 % of JNJ-63533054 at Gi2 and 70 % of JNJ-63533054 at Gi2 and 62 % of JNJ-63533054 at Gi2	58 % of JNJ-63533054 at Gi2 and 53 % of JNJ-63533054 at Gi2 and 47 % of JNJ-63533054 at Gi2	37 % of JNJ-63533054 at Gi2 and 33 % of JNJ-63533054 at Gi2 and 28 % of JNJ-63533054 at Gi2	16 % of JNJ-63533054 at Gi2 and 13 % of JNJ-63533054 at Gi2 and 14 % of JNJ-63533054 at Gi2	5.7 % of JNJ-63533054 at Gi2 and 1.59 % of JNJ-63533054 at Gi2 and 5.63 % of JNJ-63533054 at Gi2	-0.263 % of JNJ-63533054 at Gi2 and -1.74 % of JNJ-63533054 at Gi2 and 2.49 % of JNJ-63533054 at Gi2	-1.44 % of JNJ-63533054 at Gi2 and 0.514 % of JNJ-63533054 at Gi2 and 0.72 % of JNJ-63533054 at Gi2	-1.46 % of JNJ-63533054 at Gi2 and -2.26 % of JNJ-63533054 at Gi2 and 3.8 % of JNJ-63533054 at Gi2	35 ± 6%	3980 nM	36 % of JNJ-63533054 at Gi2 and 21 % of JNJ-63533054 at Gi2 and 35 % of JNJ-63533054 at Gi2	29 % of JNJ-63533054 at Gi2 and 16 % of JNJ-63533054 at Gi2 and 28 % of JNJ-63533054 at Gi2	20 % of JNJ-63533054 at Gi2 and 7 % of JNJ-63533054 at Gi2 and 23 % of JNJ-63533054 at Gi2	11 % of JNJ-63533054 at Gi2 (2×) and 4 % of JNJ-63533054 at Gi2	5.48 % of JNJ-63533054 at Gi2 and -1.21 % of JNJ-63533054 at Gi2 and 3.19 % of JNJ-63533054 at Gi2	3.32 % of JNJ-63533054 at Gi2 and -6 % of JNJ-63533054 at Gi2 and 6 % of JNJ-63533054 at Gi2	3 % of JNJ-63533054 at Gi2 and -5 % of JNJ-63533054 at Gi2 and 7.51 % of JNJ-63533054 at Gi2	-1 % of JNJ-63533054 at Gi2 and -3.25 % of JNJ-63533054 at Gi2 and 5 % of JNJ-63533054 at Gi2
